Test system: Lucilia cuprina larvae, laboratory susceptible strain (LS)
Experiment: Blowfly larvae pupation bioassay, laboratory strain, diazinon
Type: in vivo
Description: Inhibitor efficacy was determined by treating larvae with diazinon over a range of concentrations, in the presence or absence of the compounds at constant concentrations, and comparing pupation rates.
Two strains of L. cuprina were used: 1) a laboratory reference drug-susceptible strain, LS, derived from collections in the Australian Capital Territory over 40 years ago, with no history of exposure to insecticides; and 2) a field-collected strain, Tara, resistant to diazinon and diflubenzuron (Levot, G. W. & Sales, N. New high level resistance to diflubenzuron detected in the Australian sheep blowfly, Lucilia cuprina (Wiedemann) (Diptera: Calliphoridae). Gen. Appl. Entomol. 31, 43-46 (2002)). The LcαE7 gene was sequenced in each of the strains. Briefly, genomic DNA was prepared from 20 adult female flies from each strain using the DNeasy Blood and Tissue kit (Qiagen). PCR was performed with primers specific to the LcαE7 gene, and the product was cloned into a pGEM-T EASY vector (Promega). Eight clones of the susceptible strain and 10 clones of the resistant strain were sequenced using M13 forward and reverse primers.
Each experiment utilized 50 larvae at each diazinon/malathion concentration. Experiments were replicated three times for diazinon, and twice for malathion. The insecticidal effects were defined by measuring the pupation rate. […]

Structure (SMILES): OB(O)c1cc(Br)cc(N2CCOCC2)c1 [Compound 3.1]
- reduction of diazinon EC50 compared to diazinon only control: 5.7 fold

Reference: patent publication US20190327974A1, “SYNERGISTS FOR IMPROVED PESTICIDES” (priority 2017, published 2019)
